Publication PMC9611758, “Bioactive Platinum(IV) Complexes Incorporating Halogenated Phenylacetates” (Molecules, 2022)
“Also recorded” adds a separate entry of the source.

Experiments:
[1] = Reduction experiments with AsA by 1H-NMR and 1D-195Pt-NMR; type: physicochemical; details: D2O, 37 °C; for T50% (approximate time at which 50% reduction occurs): 10 mM PBS (~7.4 pH); for T50% (approximate time at which 50% reduction occurs) / time at which reduction starts: 1H-NMR; for time at which reduction starts / extent of reduction at 1 h (1H-NMR) / extent of reduction 1 h after the final 1H-NMR experiment (1D-195Pt-NMR): PBS; for extent of reduction 1 h after the final 1H-NMR experiment (1D-195Pt-NMR): regions −2800 and 400 ppm
Excerpt: Platinum(IV) complexes are reduced to their platinum(II) precursors by intracellular biological reducing agents such as AsA or GSH in tumour cells. However, the precise mechanism by which reduction occurs is not fully understood. In this paper, reduction reaction experiments were undertaken on the synthesised platinum(IV) complexes, 1–8, with the aid of ^1H-NMR and 1D-^195Pt-NMR spectroscopy. The method used for the reduction reaction experiments was adapted from the literature without modifications. A total of 10 mM PBS (~7.4 pH) was selected as media, and AsA was used as the biological reducing agent to investigate the reduction property of 1–8. Prior to the reduction reaction experiments, a control was prepared where each metal complex was dissolved with PBS in D2O. 1D-^195Pt-NMR was measured within the regions of −2800 and 400 ppm (30 min per region), at 37 °C. This was undertaken to confirm that the PBS would not interfere with the reduction process of the metal complexes. […] The approximate time points for the studied complexes at which an estimated 50% reduction had occurred, in the presence of AsA, as represented by T50%, are summarised in Table 6.
The reduction properties of 1–8 were monitored using ^1H-NMR and 1D-^195Pt-NMR spectroscopy on a 400 MHz Bruker (Melbourne, VIC, Australia) Avance Spectrometer. A sequence of ^1H-NMR experiments was carried out for 1 h at 37 °C, followed by 1D-^195Pt-NMR within the regions of −2800 and 400 ppm. An amount of 10 mM PBS (~7.4 pH) was transferred to a vial and reduced to dryness through rotary evaporation. AsA (~1 mg) was combined with the metal complex (~5 mg) and transferred to the vial containing the dried PBS. A total of 600 µL of D2O was then added to the vial to dissolve the complex, AsA, and the PBS together.

H460 lung = experiment: MTT growth inhibition assay, H460; type: cell-based, human; details: 72 h
HT29 colon = experiment: MTT growth inhibition assay, HT29; type: cell-based, human; details: MTT assay, 72 h
[2] = Lipophilicity by HPLC (log kw); type: physicochemical; details: for log kw: chromatographic lipophilicity index, extrapolated to 100% d.i.H2O; for log kw (y-intercept of log k versus [CH3CN] % plot, Figure S80): linear fit
Excerpt: For lipophilicity measurements, HPLC was utilised instead of the traditional shake-flask method, as described previously. Recent studies have also reported the efficiency of HPLC in measuring the lipophilicity of compounds [79, 80]. Each complex was eluted under several isocratic ratios. A standard curve was generated to calculate the log value of the capacity factor (log k) according to Equation (1). Following Equation (2), the percentage of organic solvent (CH3CN) in the mobile phase from each isocratic run was plotted against log kw (Figure S80). Log kw is the chromatographic lipophilicity index or measure of lipophilicity of the complex, so a higher value corresponds to greater lipophilicity. Because the selected axial ligands in this study contain F, Cl, Br, and I, it was only appropriate to determine the influence of the halogens on the overall lipophilicity of the platinum(IV) complexes. […] Conversely, the least lipophilic complex was the phen derivative containing 4-FPA, 3, with a log kw of 0.25. Furthermore, for the phen derivatives, the order of increasing lipophilicity was 3 > 1 > 5 > 7, which corresponds to the order of increasing size of the halogens, F > Cl > Br > I. This pattern was also observed with the 5,6-Me2phen derivatives (4 > 2 > 6 > 8), thereby confirming that the halogens increased the order of lipophilicity accordingly based on their size.
For lipophilicity measurements, analytical HPLC was utilised. Elution profiles were acquired on an Agilent (Melbourne, VIC, Australia) Technologies 1260 Infinity instrument equipped with a Phenomenex Onyx^TM Monolithic C18-reverse phase column (100 × 4.6 mm, 5 µm pore size) (Sydney, NSW, Australia). The mobile phase consisted of solvents, A (0.06% TFA in d.i.H2O) and B (0.06% TFA in CH3CN/d.i.H2O (90:10)). Potassium iodide was used as an external dead volume marker to determine the dead time of the column. Retention times (TR) were measured at varying isocratic ratios ranging from 30 to 36% of solvent B at 1 mL·min^−1 mL. An injection volume of 10 µL was utilised. Capacity factors were determined according to Equation (1):(1) k=(TR−T0)/T0 where k is the capacity factor, TR is the retention time of the analyte, and T0 represents the dead time. A minimum of four different mobile compositions were used for each complex to calculate k. A linear plot was generated of log k against the concentration of CH3CN in the mobile phase to determine the value of log kw expressed by Equation (2):(2) logk=Sφ+logkw where S is the slope, φ is the concentration of the CH3CN in the mobile phase, and log kw represents the capacity factor of the complex in 100% d.i.H2O. Extrapolation of this linear plot to the y-intercept indicates the log kw value.

MCF-7 breast = experiment: MTT growth inhibition assay, MCF-7; type: cell-based, human; details: for GI50: MTT assay, 72 h
SJ-G2 glioblastoma = experiment: MTT growth inhibition assay, SJ-G2; type: cell-based, human; details: 72 h
A2780 ovarian = experiment: MTT growth inhibition assay, A2780; type: cell-based, human; details: 72 h
A431 skin = experiment: MTT growth inhibition assay, A431; type: cell-based, human; details: 72 h
U87 glioblastoma = experiment: MTT growth inhibition assay, U87; type: cell-based, human; details: 72 h
[3] = tested on: non-tumour derived MCF10A breast line; experiment: MTT growth inhibition assay, MCF10A; type: cell-based, human; details: 72 h
MIA pancreas = experiment: MTT growth inhibition assay, MIA; type: cell-based, human; details: 72 h
BE2-C neuroblastoma = experiment: MTT growth inhibition assay, BE2-C; type: cell-based, human; details: 72 h
HT29 colon cells = experiment: ROS detection assay (DCFH-DA); type: cell-based, human; details: HT29 colon cells, treated at GI50 concentration (TBHP positive control 20 μM)
Excerpt: Although ROS is required for cancer cell function and progression, it can induce programmed cell death or apoptosis. […] In this study, we report the ROS activity of the studied platinum(IV) complexes, 1–8, together with the individual axial ligands (4-CPA, 4-FPA, 4-BPA, and 4-IPA) in the human cancer cell line, HT29 colon (Figure 19, Table 8, and Figure S95). The ROS potential of their platinum(II) and platinum(IV) precursors in the same cell line is also presented for comparison purposes (Table 8). […] HT29 colon cells were stained by DCFH-DA and then treated with the complexes at each specific GI50 concentration. Upon ROS production, the DCFH-DA produced dichlorodihydrofluorescein, a fluorescent product. The measured fluorescence was, therefore, proportional to the produced ROS.
To investigate the presence of ROS in treated cells, a DCFDA/H2DCFDA-cellular ROS Assay Kit (Abcam, Cambridge, MA, USA) was used, as previously described. A total of 25,000 cells/mL of HT29 cells in DMEM were seeded in 96-well plates. Cells were washed with 1X kit buffer, and then stained with 25 μM 2′,7′-dichlorofluorescein diacetate (DCFH-DA) and incubated for 45 min. DCFH-DA was then removed, and cells were then re-washed with 1X kit buffer, after which phenol red free media was added. Cells were then treated with a GI50 drug concentration for each complex. The plates were directly scanned to measure fluorescence (relative fluorescence units (RFU)) at different time points using the Glo-Max®-Multimode microplate reader (Promega Corporation, Alexandra, VIC, Australia) at an excitation/emission of 485/535 nm. To generate the positive control (20 μM tert-butyl hydroperoxide (TBHP)), cells were washed with 1X kit buffer, and stained with DCFDA (25 μM) for 45 min; this was removed and TBHP was added in phenol red free media, and the resulting solution was scanned as described above.

[4] = tested on: ADDP-resistant ovarian variant; experiment: MTT growth inhibition assay, ADDP; type: cell-based, human; details: MTT assay, 72 h
panel of cell lines = experiment: MTT growth inhibition assay, whole panel of cell lines; type: cell-based, human; details: average over the cell lines tested, MTT assay, 72 h
Du145 prostate = experiment: MTT growth inhibition assay, Du145; type: cell-based, human; details: MTT assay, 72 h

SMILES	T50% (approximate time at which 50% reduction occurs) [1] [min]	time at which reduction starts [1] [min]	extent of reduction 1 h after the final 1H-NMR experiment (1D-195Pt-NMR) [1]	GI50 (H460 lung) [nM]	GI50 (HT29 colon) [nM]	log kw (y-intercept of log k versus [CH3CN] % plot, Figure S80) [2]	GI50 (MCF-7 breast) [nM]	GI50 (SJ-G2 glioblastoma) [nM]	GI50 (A2780 ovarian) [nM]	GI50 (A431 skin) [nM]	GI50 (U87 glioblastoma) [nM]	GI50 [3] [nM]	GI50 (MIA pancreas) [nM]	GI50 (BE2-C neuroblastoma) [nM]	ROS production 24 h (HT29 colon cells) [RFU]	ROS production 48 h (HT29 colon cells) [RFU]	ROS production 72 h (HT29 colon cells) [RFU]	GI50 [4] [nM]	GI50 (panel of cell lines) [nM]	GI50 (Du145 prostate) [nM]	also measured
N[C@H]1CCCC[C@@H]1N.O=C(Cc1ccc(Cl)cc1)[O][Pt+2]1([OH])[N]2C=CC=c3ccc4c(c32)[N]1C=CC=4 [Complex 1, [Pt^IV(phen)(SS-DACH)(4-CPA)(OH)]^2+]	15 to 20	5	reduced entirely to PHENSS; also recorded: complete reduction	380 ± 81	150 ± 64	0.7472	860 ± 180	420 ± 92	280 ± 67	560 ± 73	740 ± 230	290 ± 90	270 ± 42	490 ± 93	272 ± 9	368 ± 19	409 ± 11	290 ± 50	406 ± 90	140 ± 43	extent of reduction at 1 h (1H-NMR) [1]: almost entirely reduced to its platinum(II) precursor, PHENSS; log kw [2]: 0.75
Cc1c(C)c2c3c4c1=CC=C[N]4[Pt+2]([OH])([O]C(=O)Cc1ccc(Cl)cc1)[N]3C=CC=2.N[C@H]1CCCC[C@@H]1N [Complex 2, [Pt^IV(5,6-Me2phen)(SS-DACH)(4-CPA)(OH)]^2+]	20 to 25	5	entirely reduce back to its platinum(II) precursor, 56MESS; also recorded: complete reduction	200 ± 170	22 ± 9.2	0.9477	180 ± 77	100 ± 45	43 ± 10	41 ± 8	79 ± 30	35 ± 7.8	28 ± 5.5	110 ± 18	358 ± 21	508 ± 16	564 ± 10	26 ± 4.5	75 ± 30	33 ± 21	extent of reduction at 1 h (1H-NMR) [1]: almost reduced; fold less potent than 56MESS (MCF-7 breast): ~2 fold
N[C@H]1CCCC[C@@H]1N.O=C([O-])Cc1ccc(F)cc1.[OH-].[Pt+4].c1cnc2c(c1)ccc1cccnc12 [Complex 3, [Pt^IV(phen)(SS-DACH)(4-FPA)(OH)]^2+]	5 to 10		complete reduction	320 ± 30	210 ± 30	0.249	740 ± 60	337 ± 60	340 ± 70	450 ± 60	1000 ± 150	320 ± 10	230 ± 30	810 ± 200	305 ± 28	409 ± 22	558 ± 13	250 ± 10	426 ± 60	100 ± 17	log kw [2]: 0.25
